Laboratory results from patent US12576154B2, “Conjugates of PSMA-binding moieties with cytotoxic agents” (PHILOCHEM AG, priority 2022, dated 2026).

How the values were obtained:
HT1080.hPSMA xenografts [1] = experiment: Payload study and combination therapy with L19-IL2 in HT1080.hPSMA tumor model (tumor volume); type: in vivo, mice; settings: conjugates 250 nmol/kg i.v. days 7 and 11; L19-IL2 2.5 mg/kg i.v. days 8, 10, 12; n=3/4
Method: (§1) HT1080.hPSMA tumor cells were grown to 90% confluence and detached with Trypsin-EDTA 0.05%. Cells were resuspended in Hank's Balanced Salt Solution (HBSS) at a 5×10^7 cells/mL density. 100 μL of HT1080.hPSMA cells (5×10^6 cells) were injected subcutaneously in the right flank of female athymic Balb/c AnNRj-Foxn1 mice (6 to 8 weeks of age). Tumors were grown until an average volumes of ˜100 mm^3 was reached.
Tumor-bearing mice were randomized into groups of 3 or 4 animals. A 50 μM solution (2% DMSO, 250 nmol/kg; 100 μL) of Conjugate 1, 5, or 6, L19-IL2 (SEQ ID NO: 10, 0.5 mg/mL, 2.5 mg/kg; 100 μL), PBS (100 μL), or L19-IL2 buffer (NaH2PO4 6.7 mM, NaCl 20 mM, KCl 1.8 mM, Mannitol 133 mM, Tween80 0.1% v/v, Glycerol 1% w/v; 100 μL) was injected intravenously (i.e., systemic administration through tail-vein) with the following schedule:
Groups of Conjugates 1, 5, or 6: two separate injections with a 3-day break in between (day 7 and day 11 after tumor implantation).
L19-IL2 group: three separate injections with a 1-day break in between (day 8, day 10, and day 12 after tumor implantation).
Combination therapy groups: two separate injections of Conjugate 1, 5, or 6 with a 3-day break in between (day 7 and day 11 after tumor implantation) and three separate injections of L19-IL2 with a 1-day break in between (day 8, day 10, and day 12 after tumor implantation). […]

[2] = Body weight change during comparative therapy experiment (Example 4); type: in vivo, mice; settings: 250 nmol/kg i.v. on days 8, 10, 12, n=5
Method: as §1, with “until” for “until an average”, “[…].” for “˜100 mm^3 was reached.”
(§2) Tumor-bearing mice were randomized into groups of 5 and 0.1 mL of 50 μM solutions (2% DMSO, PBS, 250 nmol/kg) of the four conjugates (1 to 4), or saline solution (0.9% NaCl) was injected intravenously three times with 1-day break in between (days 8, 10, and 12 after tumor implantation).

HT1080.hPSMA xenografts [3] = experiment: Comparative therapy experiment in mice bearing HT1080.hPSMA xenografts (tumor volume); type: in vivo; settings: 250 nmol/kg i.v. on days 8, 10, 12 after tumor implantation, n=5
Method: as §1, with “until” for “until an average”, “[…].” for “˜100 mm^3 was reached.”
as §2

LNCaP tumor (PSMA+) = experiment: MMAE release from conjugates in LNCaP tumor model (biodistribution by LC-MS); type: in vivo, mice
Method: LNCaP tumor cells were grown to 80% confluence and detached with Trypsin-EDTA 0.05%. Cells were resuspended in PBS at a density of 30×10^6 cells/mL. The cell suspension was further diluted 1:1 with Matrigel. 200 μL of LNCaP cells (3×10^6 cells) were injected subcutaneously in the left flank of female athymic Balb/c AnNRj-Foxn1 mice (6 to 8 weeks of age). Tumors were grown until volumes of 200-300 mm^3 were observed.
0.1 ml of 50 μM solutions (2% DMSO, PBS) of the four Conjugates (1-4) were injected intravenously into 4 of the mice (1 mouse per SMDC). The animals were sacrificed after 24 h and the following organs were extracted: blood, LNCaP tumor (PSMA+), heart, lungs, liver, kidney, spleen, stomach. The blood fraction was centrifuged, and the plasma (supernatant) was extracted. The organs were preserved at −80° C. before being used for further analysis.
Frozen plasma or mouse tissues (˜50 mg) were thawed and treated with 600 μL of an aqueous solution containing 95% acetonitrile (ACN), and 0.1% HCOOH were added to induce protein precipitation. 50 μL of a solution of d8-MMAE, 50 nM) was added as internal standard. Samples were then homogenized with a tissue lyser for 15 minutes at 30 Hz. After homogenization, samples were centrifuged (21'000 g for 10 minutes). The supernatant was collected and dried at room temperature with a rotary evaporator. Pellets were then resuspended in 1 mL of an aqueous solution containing 3% ACN and 0.1% of TFA and subsequently purified on Oasis HLB SPE columns. Eluates were dried under vacuum at room temperature. […] Peak areas of analytes and internal standards were integrated, and corresponding ratios were calculated. The ratios were then transformed into pmol/g of wet tissue using single-concentration external calibration points and corrected by the total weight of the sample analysed. The percentage of injected dose per gram (% ID/g) was finally calculated by normalizing the value based on the total dose injected into the mouse. […]

SMILES: CC[C@H](C)[C@@H]([C@@H](CC(=O)N1CCC[C@H]1[C@H](OC)[C@@H](C)C(=O)N[C@H](C)[C@@H](O)c1ccccc1)OC)N(C)C(=O)[C@@H](NC(=O)[C@H](C(C)C)N(C)C(=O)OCc1ccc(NC(=O)[C@@H]2CCCN2C(=O)CNC(=O)CCCCCN2C(=O)CC(SC[C@H](N)C(=O)NCCCCCC(=O)NC[C@H]3CC[C@H](C(=O)N[C@@H](Cc4ccc5ccccc5c4)C(=O)NCCCC[C@H](NC(=O)N[C@@H](CCC(=O)O)C(=O)O)C(=O)O)CC3)C2=O)cc1)C(C)C (stereo partly drawn) [Conjugate 1]
- In vivo anti-tumor activity, monotherapy (tumor volume) (HT1080.hPSMA xenografts [1]): slightly lower anti-cancer efficacy as compared to Conjugate 5
- Toxicity (body weight change %) [2]: lowest toxicity
- Complete remissions (HT1080.hPSMA xenografts [3]): 1/5
- Therapeutic efficacy (tumor volume change) (HT1080.hPSMA xenografts [3]): significant shrinkage of the tumors of all 5 mice
- MMAE release, experiment repeated with three mice each (LNCaP tumor (PSMA+); 24 h after intravenous injection, LNCaP tumor model, n=3): confirmed
- MMAE release (quantitative biodistribution) (LNCaP tumor (PSMA+); 24 hours after intravenous injection, 0.1 ml of 50 μM, 1 mouse per SMDC, LNCaP tumor and organs): Significant release of MMAE
